Earlier results on 1 molecule are cited in PubChem BioAssay AID1259409 (Chemical Carcinogenesis Research Information System (CCRIS), 2018).

This data set deals with rodent chemically induced tumor inhibition, incidence and multiplicity. Briefly: CCRIS tumor inhibitor studies.

Consider `C=CCSCC=C`, for which the “tumour outcome (control, treated, inhibition, significance)” value is, setting by setting: (Carcinogen: 4-(METHYLNITROSAMINO)-1-(3-PYRIDYL)-1-BUTANONE, 64091-91-4, Dose [Inhibitor]: 0, 200 MG/KG BW IN CORN OIL FOR 3 D PRIOR TO CARCINOGEN TREATMENT (STUDY DURATION: 16 WK), Route [Inhibitor]: ORAL, Species: MOUSE, Strain/Sex: STRAIN-A/FEMALE, Target Tissue: Type of Lesion: LUNG: TUMOR, Dose [Carcinogen]: 100 MG/KG BW ONCE, Promoter: NONE USED) 100%, 38%, 62%, not calculated; (Carcinogen: 4-(METHYLNITROSAMINO)-1-(3-PYRIDYL)-1-BUTANONE, 64091-91-4, Dose [Inhibitor]: 0, 200 MG/KG/BW IN CORN OIL 1/D FOR 3 DAY PRIOR TO CARCINOGEN DOSE (STUDY DURATION: 16 WK), Route [Inhibitor]: ORAL, Species: MOUSE, Strain/Sex: STRAIN-A/FEMALE, Target Tissue: Type of Lesion: LUNG: TUMOR, Dose [Carcinogen]: 2 MG ONCE ADMINISTERED 2 HR POST LAST AGENT DOSE, Promoter: NONE USED) 100%, 38%, 62%, p<0.05; (Carcinogen: 7,12-DIMETHYLBENZ[A]ANTHRACENE, 57-97-6, Dose [Inhibitor]: 0, 1.8 MMOL/KG BW IN CORN OIL 96, 48 AND 24 HR PRIOR TO CARCINOGEN TREATMENT (STUDY DURATION: 25 WK), Route [Inhibitor]: GAVAGE, Species: RAT, Strain/Sex: SPRAGUE-DAWLEY/FEMALE, Target Tissue: Type of Lesion: MAMMARY GLAND: ADENOCARCINOMA, Dose [Carcinogen]: 10 MG ONCE, Promoter: NONE USED) 92%, 56%, 39%, p<0.05; (Carcinogen: ARISTOLOCHIC ACID, 313-67-7, Dose [Inhibitor]: 0, 150 MG/KG BW ADMINISTERED 4 HR PRIOR TO EACH CARCINOGEN DOSE 2/WK FOR 12 WK (STUDY DURATION: 46 WK), Route [Inhibitor]: GAVAGE, Species: RAT, Strain/Sex: BD-6/MALE, Target Tissue: Type of Lesion: FORESTOMACH: CARCINOMA OR SARCOMA, Dose [Carcinogen]: 10 MG/KG BW 2/WK FOR 12 WK, Promoter: NONE USED) 9/20 (45%), 2/20 (10%), 78%, p<0.01; (Carcinogen: ARISTOLOCHIC ACID, 313-67-7, Dose [Inhibitor]: 0, 150 MG/KG BW ADMINISTERED 24 AND 4 HR PRIOR TO EACH CARCINOGEN DOSE FOR 12 WK (STUDY DURATION: 46 WK), Route [Inhibitor]: GAVAGE, Species: RAT, Strain/Sex: BD-6/MALE, Target Tissue: Type of Lesion: FORESTOMACH: CARCINOMA OR SARCOMA, Dose [Carcinogen]: 10 MG/KG BW 2/WK FOR 12 WK, Promoter: NONE USED) 11/25 (44%), 0/20 (0%), 100%, p<0.001; (Carcinogen: BENZO[A]PYRENE [50-32-8], Dose [Inhibitor]: 0, 200 MG/KG BW IN TRIOCTANOIN 1 D AND 2 HR PRIOR TO CARCINOGEN DOSE (STUDY DURATION: 21 WK), Route [Inhibitor]: GAVAGE, Species: MOUSE, Strain/Sex: CD-1/FEMALE, Target Tissue: Type of Lesion: SKIN: PAPILLOMA, Dose [Carcinogen]: 0.3 UMOL IN 0.2 ML ACETONE ONCE, Promoter: 12-O-TETRADECANOYLPHORBOL-13-ACETATE [16561-29-8]) 92%, 73%, 21%, not calculated. Moreover, the “tumour outcome (control, treated, inhibition, significance)” value (Carcinogen: BENZO[A]PYRENE [50-32-8], Dose [Inhibitor]: 200 MG/KG IN 10 µL TRIOCTANOIN ONCE 1 D AND 2 HR PRIOR TO CARCINOGEN DOSE (STUDY DURATION: 21 WK), Route [Inhibitor]: GAVAGE, Species: MOUSE, Strain/Sex: CD-1/FEMALE, Target Tissue: Type of Lesion: SKIN: PAPILLOMA, Dose [Carcinogen]: 0.3 UMOL IN 0.2 ML ACETONE ONCE (STUDY DURATION: 21 WK), Promoter: 12-O-TETRADECANOYLPHORBOL-13-ACETATE [16561-29-8]) is reported as 92%, 74%, 20%, not calculated; the “tumour outcome (control, treated, inhibition, significance)” value (Carcinogen: DIETHYLNITROSAMINE, 55-18-5, Dose [Inhibitor]: 0, 150 MG/KG BW BY INTRAPERITONEAL INJECTION ON DAYS 13, 14 AND 15 OF AGE THEN 1 G/KG DIET FROM 21 TO 161 DAYS OF AGE (S, Route [Inhibitor]: INTRAPERITONEAL, ORAL, Species: MOUSE, Strain/Sex: C3H/MALE, Target Tissue: Type of Lesion: LIVER: ADENOMA, Dose [Carcinogen]: 4 MG/KG IN TRICAPRYLIN ONCE ON DAY 15 OF AGE, Promoter: NONE USED) is given as 100%, 97%, 3%, not significant; the “tumour outcome (control, treated, inhibition, significance)” value (Carcinogen: DIETHYLNITROSAMINE, 55-18-5, N-METHYL-N-NITROSOUREA, 684-93-5, N,N'-DIMETHYLHYDRAZINE, 540-73-8, N-BUTYL-N-(4-HYDR, Carcinogen: DIETHYLNITROSAMINE, 55-18-5, N-METHYL-N-NITROSOUREA, 684-93-5, N,N'-DIMETHYLHYDRAZINE, 540-73-8, N-BUTYL-N-(4-HYDR, Dose [Inhibitor]: 0, 200 MG/KG BW IN CORN OIL 3/WK FOR 6 WK BEGINNING POST CARCINOGEN TREATMENT (STUDY DURATION: 28 WK), Route [Inhibitor]: GAVAGE, Species: RAT, Strain/Sex: F344/MALE, Target Tissue: Type of Lesion: KIDNEY: RENAL CELL ADENOMA, Dose [Carcinogen]: 100 MG/KG BW DEN ONCE, 20 MG/KG BW MNU ONCE ON D 2, 5, 8 AND 11, 40 MG/KG BW DMH ON D 14, 17, 20 AND 23, 0.05% BHBN I, Dose [Carcinogen]: 100 MG/KG BW DEN ONCE, 20 MG/KG BW MNU ONCE ON D 2, 5, 8 AND 11, 40 MG/KG BW DMH ON D 14, 17, 20 AND 23, 0.05% BHBN I, Promoter: NONE USED) is 4/20 (20%), 4/19 (21%), -5%, not significant; the “tumour outcome (control, treated, inhibition, significance)” value (Carcinogen: DIETHYLNITROSAMINE, 55-18-5, N-METHYL-N-NITROSOUREA, 684-93-5, N,N'-DIMETHYLHYDRAZINE, 540-73-8, N-BUTYL-N-(4-HYDR, Carcinogen: DIETHYLNITROSAMINE, 55-18-5, N-METHYL-N-NITROSOUREA, 684-93-5, N,N'-DIMETHYLHYDRAZINE, 540-73-8, N-BUTYL-N-(4-HYDR, Dose [Inhibitor]: 0, 200 MG/KG BW IN CORN OIL 3/WK FOR 6 WK BEGINNING POST CARCINOGEN TREATMENT (STUDY DURATION: 28 WK), Route [Inhibitor]: GAVAGE, Species: RAT, Strain/Sex: F344/MALE, Target Tissue: Type of Lesion: LARGE INTESTINE: ADENOMA, Dose [Carcinogen]: 100 MG/KG BW DEN ONCE, 20 MG/KG BW MNU ONCE ON D 2, 5, 8 AND 11, 40 MG/KG BW DMH ON D 14, 17, 20 AND 23, 0.05% BHBN I, Dose [Carcinogen]: 100 MG/KG BW DEN ONCE, 20 MG/KG BW MNU ONCE ON D 2, 5, 8 AND 11, 40 MG/KG BW DMH ON D 14, 17, 20 AND 23, 0.05% BHBN I, Promoter: NONE USED) is given as 6/20 (30%), 1/19 (5%), 83%, not calculated; the “tumour outcome (control, treated, inhibition, significance)” value (Carcinogen: DIETHYLNITROSAMINE, 55-18-5, N-METHYL-N-NITROSOUREA, 684-93-5, N,N'-DIMETHYLHYDRAZINE, 540-73-8, N-BUTYL-N-(4-HYDR, Carcinogen: DIETHYLNITROSAMINE, 55-18-5, N-METHYL-N-NITROSOUREA, 684-93-5, N,N'-DIMETHYLHYDRAZINE, 540-73-8, N-BUTYL-N-(4-HYDR, Dose [Inhibitor]: 0, 200 MG/KG BW IN CORN OIL 3/WK FOR 6 WK BEGINNING POST CARCINOGEN TREATMENT (STUDY DURATION: 28 WK), Route [Inhibitor]: GAVAGE, Species: RAT, Strain/Sex: F344/MALE, Target Tissue: Type of Lesion: LARGE INTESTINE: CARCINOMA, Dose [Carcinogen]: 100 MG/KG BW DEN ONCE, 20 MG/KG BW MNU ONCE ON D 2, 5, 8 AND 11, 40 MG/KG BW DMH ON D 14, 17, 20 AND 23, 0.05% BHBN I, Dose [Carcinogen]: 100 MG/KG BW DEN ONCE, 20 MG/KG BW MNU ONCE ON D 2, 5, 8 AND 11, 40 MG/KG BW DMH ON D 14, 17, 20 AND 23, 0.05% BHBN I, Promoter: NONE USED) is listed as 8/20 (40%), 7/19 (37%), 8%, not significant; the “tumour outcome (control, treated, inhibition, significance)” value (Carcinogen: DIETHYLNITROSAMINE, 55-18-5, N-METHYL-N-NITROSOUREA, 684-93-5, N,N-DIBUTYLNITROSAMINE, 924-16-3, Carcinogen: DIETHYLNITROSAMINE, 55-18-5, N-METHYL-N-NITROSOUREA, 684-93-5, N,N-DIBUTYLNITROSAMINE, 924-16-3, Dose [Inhibitor]: 0, 0.5% IN DIET BEGINNING POST CARCINOGEN TREATMENT AND CONTINUING TO WK 40 (STUDY DURATION: 40 WK), Route [Inhibitor]: ORAL, Species: RAT, Strain/Sex: F344/MALE, Target Tissue: Type of Lesion: LUNG: ADENOMA, Dose [Carcinogen]: 100 MG/KG DIETHYLNITROSAMINE ONCE FOLLOWED BY 20 MG/KG N-METHYL-N-NITROSOUREA ON D 2, 5, 8 AND 11 THEN 0.05% N-N-DIBUTYL, Promoter: NONE USED) is on record as 9/16 (56%), 2/18 (11%), 80%, p<0.01.
